Measured values: ChEMBL document CHEMBL1201862, “PubChem BioAssay data set” (2004)
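48-hour exposure; five concentrations; linearly interpolated endpoints. GI50: concentration for 50% inhibition of growth.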 The source made the active and inactive calls. No stated cut-off is given here; in the data, active = GI50 up to about 1.1 µM and inactive = higher.

How the values were obtained:
Test in all cases: NCI tumour cell line growth inhibition, 48 h
[1] = tested on: 786-0
[2] = tested on: A498
[3] = tested on: A549
[4] = tested on: ACHN
[5] = tested on: BT-549
[6] = tested on: CAKI-1
[7] = tested on: CCRF-CEM
[8] = tested on: COLO 205
[9] = tested on: DU-145
[10] = tested on: EKVX
[11] = tested on: HCC 2998
[12] = tested on: HCT-116
[13] = tested on: HCT-15
[14] = tested on: HL-60
[15] = tested on: HOP-62
[16] = tested on: HOP-92
[17] = tested on: HT-29
[18] = tested on: Hs-578T
[19] = tested on: IGROV-1
[20] = tested on: K562
[21] = tested on: KM12
[22] = tested on: LOX IMVI
[23] = tested on: M14
[24] = tested on: MCF7
[25] = tested on: MDA-MB-231
[26] = tested on: MDA-MB-435
[27] = tested on: MDA-N
[28] = tested on: MOLT-4
[29] = tested on: NCI-H226
[30] = tested on: NCI-H23
[31] = tested on: NCI-H460
[32] = tested on: NCI-H522
[33] = tested on: NCI/ADR-RES
[34] = tested on: OVCAR-3
[35] = tested on: OVCAR-4
[36] = tested on: OVCAR-5
[37] = tested on: OVCAR-8
[38] = tested on: PC-3
[39] = tested on: RPMI-8226
[40] = tested on: SF-268
[41] = tested on: SF-295
[42] = tested on: SF-539
[43] = tested on: SK-MEL-28
[44] = tested on: SK-MEL-2
[45] = tested on: SK-MEL-5
[46] = tested on: SK-OV-3
[47] = tested on: SN12C
[48] = tested on: SNB-19
[49] = tested on: SNB-75
[50] = tested on: SR
[51] = tested on: SW-620
[52] = tested on: T47D
[53] = tested on: TK-10
[54] = tested on: U-251
[55] = tested on: UACC-257
[56] = tested on: UACC-62
[57] = tested on: UO-31
[58] = tested on: Malme-3M
[59] = tested on: RXF 393

C[C@@H]1CC[C@H]2C(C)(C)[C@H]3C[C@@]12CC[C@@]3(C)O [CEDROL]
GI50 [1]: 34.3 µM (inactive)
GI50 [2]: > 100 µM (inactive)
GI50 [3]: 42.7 µM (inactive)
GI50 [4]: > 100 µM (inactive)
GI50 [5]: > 100 µM (inactive)
GI50 [6]: > 100 µM (inactive)
GI50 [7]: > 100 µM (inactive)
GI50 [8]: > 100 µM (inactive)
GI50 [9]: > 100 µM (inactive)
GI50 [10]: > 100 µM (inactive)
GI50 [11]: 52.2 µM (inactive)
GI50 [12]: > 100 µM (inactive)
GI50 [13]: 59.3 µM
GI50 [14]: 18.7 µM (inactive)
GI50 [15]: > 100 µM (inactive)
GI50 [16]: 72.6 µM (inactive)
GI50 [17]: 36 µM (inactive)
GI50 [18]: > 100 µM (inactive)
GI50 [19]: > 100 µM (inactive)
GI50 [20]: 92 µM (inactive)
GI50 [21]: 48.1 µM (inactive)
GI50 [22]: > 100 µM (inactive)
GI50 [23]: > 100 µM (inactive)
GI50 [24]: > 100 µM (inactive)
GI50 [25]: > 100 µM (inactive)
GI50 [26]: 92.5 µM (inactive)
GI50 [27]: > 100 µM (inactive)
GI50 [28]: 35.5 µM (inactive)
GI50 [29]: 77.1 µM (inactive)
GI50 [30]: > 100 µM (inactive)
GI50 [31]: 18.2 µM (inactive)
GI50 [32]: 45.9 µM (inactive)
GI50 [33]: > 100 µM (inactive)
GI50 [34]: > 100 µM (inactive)
GI50 [35]: > 100 µM (inactive)
GI50 [36]: > 100 µM (inactive)
GI50 [37]: > 100 µM (inactive)
GI50 [38]: > 100 µM (inactive)
GI50 [39]: 24.6 µM (inactive)
GI50 [40]: > 100 µM (inactive)
GI50 [41]: > 100 µM (inactive)
GI50 [42]: > 100 µM (inactive)
GI50 [43]: 60 µM (inactive)
GI50 [44]: > 100 µM (inactive)
GI50 [45]: 42.7 µM (inactive)
GI50 [46]: > 100 µM (inactive)
GI50 [47]: 26.7 µM (inactive)
GI50 [48]: > 100 µM (inactive)
GI50 [49]: > 100 µM (inactive)
GI50 [50]: 18.7 µM (inactive)
GI50 [51]: > 100 µM (inactive)
GI50 [52]: > 100 µM (inactive)
GI50 [53]: > 100 µM (inactive)
GI50 [54]: > 10 µM (inactive)
GI50 [55]: > 100 µM (inactive)
GI50 [56]: > 100 µM (inactive)
GI50 [57]: > 100 µM (inactive)

O=S1(=O)C(c2ccccc2)C(N2CCCCC2)C1C1CC2c3ccccc3C1c1ccccc12 (centres undefined)
GI50 [1]: > 100 µM (inactive)
GI50 [2]: > 100 µM (inactive)
GI50 [3]: 8.17 µM (inactive)
GI50 [4]: > 100 µM (inactive)
GI50 [5]: > 100 µM (inactive)
GI50 [6]: > 100 µM (inactive)
GI50 [7]: 2.45 µM (inactive)
GI50 [8]: 14.8 µM (inactive)
GI50 [9]: > 100 µM (inactive)
GI50 [10]: > 100 µM (inactive)
GI50 [12]: 5.69 µM (inactive)
GI50 [13]: > 48.5 µM
GI50 [14]: 2.86 µM (inactive)
GI50 [15]: > 100 µM (inactive)
GI50 [16]: 8.81 µM (inactive)
GI50 [17]: 10.6 µM (inactive)
GI50 [18]: > 100 µM (inactive)
GI50 [19]: > 94 µM (inactive)
GI50 [20]: 5.56 µM (inactive)
GI50 [21]: 23.3 µM (inactive)
GI50 [22]: > 100 µM (inactive)
GI50 [23]: > 100 µM (inactive)
GI50 [24]: 30.8 µM (inactive)
GI50 [25]: > 100 µM (inactive)
GI50 [26]: > 30.7 µM (inactive)
GI50 [27]: > 100 µM (inactive)
GI50 [28]: 5.47 µM (inactive)
GI50 [58]: > 100 µM (inactive)
GI50 [29]: > 100 µM (inactive)
GI50 [30]: > 100 µM (inactive)
GI50 [31]: 17.6 µM (inactive)
GI50 [32]: 9.95 µM (inactive)
GI50 [33]: > 28 µM (inactive)
GI50 [34]: 17.6 µM (inactive)
GI50 [35]: 7.98 µM (inactive)
GI50 [36]: > 100 µM (inactive)
GI50 [37]: > 100 µM (inactive)
GI50 [38]: > 30 µM (inactive)
GI50 [39]: 4.5 µM (inactive)
GI50 [59]: > 100 µM (inactive)
GI50 [40]: > 100 µM (inactive)
GI50 [41]: > 100 µM (inactive)
GI50 [42]: > 100 µM (inactive)
GI50 [44]: > 100 µM (inactive)
GI50 [45]: 45.1 µM (inactive)
GI50 [46]: > 100 µM (inactive)
GI50 [47]: > 35.8 µM (inactive)
GI50 [48]: > 100 µM (inactive)
GI50 [49]: > 100 µM (inactive)
GI50 [50]: 5.93 µM (inactive)
GI50 [51]: > 28.4 µM (inactive)
GI50 [52]: 10.4 µM (inactive)
GI50 [53]: > 100 µM (inactive)
GI50 [54]: > 85.1 µM (inactive)
GI50 [55]: > 92.7 µM (inactive)
GI50 [56]: > 100 µM (inactive)
GI50 [57]: > 54.7 µM (inactive)
